The values below come from PMC3914206.

What all share (type): binding
Settings in all cases: Compound Concentration 10 µM

For test [1], the target named is T1, panel of 442 kinases (Homo sapiens, UniProt Q9H1R3).
T1 construct: purchased KINOMEscan
An excerpt: (§1) We assessed the selectivity of members of this scaffold using the KINOMEscan methodology across a near comprehensive panel of 442 kinases [[18,27]].

The target in test [2] is T2, panel of 442 kinases (Homo sapiens, UniProt Q13237).
T2 construct: purchased KINOMEscan
T2 sequence (Q13237 1-762): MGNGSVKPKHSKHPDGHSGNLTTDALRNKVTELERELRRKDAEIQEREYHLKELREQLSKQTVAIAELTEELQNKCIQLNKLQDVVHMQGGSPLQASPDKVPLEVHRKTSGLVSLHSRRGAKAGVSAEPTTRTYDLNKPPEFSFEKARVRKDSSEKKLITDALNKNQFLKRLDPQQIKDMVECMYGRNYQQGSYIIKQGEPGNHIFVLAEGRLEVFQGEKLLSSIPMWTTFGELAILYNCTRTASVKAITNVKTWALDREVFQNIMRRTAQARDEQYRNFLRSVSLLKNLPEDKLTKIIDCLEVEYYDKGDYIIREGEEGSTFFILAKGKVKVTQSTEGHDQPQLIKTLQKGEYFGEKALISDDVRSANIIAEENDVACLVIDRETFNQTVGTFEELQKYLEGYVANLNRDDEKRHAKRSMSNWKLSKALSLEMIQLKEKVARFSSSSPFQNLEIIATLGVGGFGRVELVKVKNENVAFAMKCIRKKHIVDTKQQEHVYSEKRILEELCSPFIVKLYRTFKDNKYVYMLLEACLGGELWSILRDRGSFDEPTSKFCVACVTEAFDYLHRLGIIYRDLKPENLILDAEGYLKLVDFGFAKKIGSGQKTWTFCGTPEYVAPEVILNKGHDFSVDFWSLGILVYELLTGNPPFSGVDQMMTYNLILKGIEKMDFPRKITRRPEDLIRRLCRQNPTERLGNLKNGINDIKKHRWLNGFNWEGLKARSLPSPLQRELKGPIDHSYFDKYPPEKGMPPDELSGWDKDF
Text: as §1

The target of test [3] is T3, panel of 442 kinases (Homo sapiens, UniProt O75676).
T3 construct: purchased KINOMEscan
T3 sequence (O75676 whole entry): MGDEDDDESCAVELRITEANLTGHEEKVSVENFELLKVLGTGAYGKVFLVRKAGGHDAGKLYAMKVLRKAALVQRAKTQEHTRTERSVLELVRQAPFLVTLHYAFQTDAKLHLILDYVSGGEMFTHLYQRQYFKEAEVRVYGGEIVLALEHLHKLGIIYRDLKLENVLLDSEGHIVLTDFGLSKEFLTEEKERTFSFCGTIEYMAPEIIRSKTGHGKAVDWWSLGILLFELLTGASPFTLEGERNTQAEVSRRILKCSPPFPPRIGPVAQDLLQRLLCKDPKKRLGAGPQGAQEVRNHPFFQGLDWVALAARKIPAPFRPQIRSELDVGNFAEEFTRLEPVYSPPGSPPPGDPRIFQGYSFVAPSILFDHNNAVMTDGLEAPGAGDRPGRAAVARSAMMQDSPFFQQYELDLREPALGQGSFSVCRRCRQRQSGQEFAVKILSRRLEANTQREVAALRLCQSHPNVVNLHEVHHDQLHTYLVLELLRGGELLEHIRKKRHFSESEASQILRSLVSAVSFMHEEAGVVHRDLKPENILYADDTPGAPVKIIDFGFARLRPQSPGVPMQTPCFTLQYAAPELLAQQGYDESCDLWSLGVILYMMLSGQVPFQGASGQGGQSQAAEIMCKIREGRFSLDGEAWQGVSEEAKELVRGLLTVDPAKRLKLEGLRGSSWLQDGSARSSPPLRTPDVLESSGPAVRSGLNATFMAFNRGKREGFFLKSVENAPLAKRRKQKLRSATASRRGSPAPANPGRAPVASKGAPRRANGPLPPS
Text: as §1

T1 sequence (Q9H1R3 whole entry): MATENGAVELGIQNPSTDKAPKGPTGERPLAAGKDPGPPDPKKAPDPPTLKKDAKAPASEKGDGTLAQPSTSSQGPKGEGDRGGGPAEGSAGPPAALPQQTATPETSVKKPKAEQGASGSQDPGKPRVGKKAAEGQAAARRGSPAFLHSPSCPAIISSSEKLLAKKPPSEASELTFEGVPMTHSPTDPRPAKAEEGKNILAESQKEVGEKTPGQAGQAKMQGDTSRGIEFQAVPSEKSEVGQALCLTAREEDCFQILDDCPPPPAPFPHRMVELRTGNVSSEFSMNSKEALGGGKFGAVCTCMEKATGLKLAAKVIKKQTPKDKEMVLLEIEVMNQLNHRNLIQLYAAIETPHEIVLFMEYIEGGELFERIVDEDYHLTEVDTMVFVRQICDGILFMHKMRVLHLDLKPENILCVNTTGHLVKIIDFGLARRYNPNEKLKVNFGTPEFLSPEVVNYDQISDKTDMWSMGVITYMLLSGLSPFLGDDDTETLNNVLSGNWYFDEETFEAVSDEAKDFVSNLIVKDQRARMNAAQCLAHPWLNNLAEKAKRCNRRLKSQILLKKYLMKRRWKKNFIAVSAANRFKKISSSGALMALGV

For `COc1cc(C(=O)N2CCC(N3CCN(C)CC3)CC2)ccc1Nc1ncc2c(n1)N(C)c1ccccc1C(=O)N2C` [15 (LRRK2-IN-1)], the “KINOMEscan: MYLK2” value on panel of 442 kinases [1] turned out to be 98. For the same compound, the “KINOMEscan: PRKG2” value at panel of 442 kinases [2] was 74. Also, at panel of 442 kinases [3], the “KINOMEscan: RPS6KA4(Kin.Dom.1-N-terminal)” value is 100 and the “KINOMEscan: RPS6KA4(Kin.Dom.2-C-terminal)” value is 46.
`COc1cc(C(=O)N2CCC(N3CCN(C)CC3)CC2)ccc1Nc1ncc2c(n1)N1CCc3cccc(c31)C(=O)N2C` [Compound 24]: the “KINOMEscan: MYLK2” value on panel of 442 kinases [1] is 85. The “KINOMEscan: PRKG2” value on panel of 442 kinases [2] was 98. The “KINOMEscan: RPS6KA4(Kin.Dom.2-C-terminal)” value at panel of 442 kinases [3] came out at 0.65.
As for `COc1cc(C(=O)N2CCC(N3CCN(C)CC3)CC2)ccc1Nc1ncc2c(n1)N(C1CCCC1)c1ccccc1C(=O)N2C` [Compound 25, 11-cyclopentyl-2-((2-methoxy-4-(4-(4-methylpiperazin-1-yl)piperidine-1-carbonyl)phenyl)amino)-5-methyl-5H-benzo[e]pyrimido[5,4-b][1,4]diazepin-6(11H)-one], on panel of 442 kinases [1], the “KINOMEscan: MYLK2” value was 100. Besides, the “KINOMEscan: PRKG2” value at panel of 442 kinases [2] stood at 98. Further, at panel of 442 kinases [3], the “KINOMEscan: RPS6KA4(Kin.Dom.1-N-terminal)” value came to 100 and the “KINOMEscan: RPS6KA4(Kin.Dom.2-C-terminal)” value was 100.
In the case of `CCOc1cc(C(=O)N2CCC(N3CCN(C)CC3)CC2)ccc1Nc1ncc2c(n1)N(C1CCCC1)c1ccccc1C(=O)N2C` [Compound 26], on panel of 442 kinases [1], the “KINOMEscan: MYLK2” value is 100. In addition, on panel of 442 kinases [2], the “KINOMEscan: PRKG2” value is 100. For the same compound, on panel of 442 kinases [3], the “KINOMEscan: RPS6KA4(Kin.Dom.1-N-terminal)” value stood at 100 and the “KINOMEscan: RPS6KA4(Kin.Dom.2-C-terminal)” value came to 100.
